# Data published in ChEMBL document CHEMBL3351363 (J Med Chem, 2014).
# Experiments:
# [1] = target: T1, Muscarinic acetylcholine receptor M1 (Homo sapiens, UniProt P11229); assay: Agonist activity at human M1 receptor expressed in HEK293T cells by BRET based Gq protein activation assay; type: cell-based, HEK-293T
# T1 sequence (P11229 whole entry): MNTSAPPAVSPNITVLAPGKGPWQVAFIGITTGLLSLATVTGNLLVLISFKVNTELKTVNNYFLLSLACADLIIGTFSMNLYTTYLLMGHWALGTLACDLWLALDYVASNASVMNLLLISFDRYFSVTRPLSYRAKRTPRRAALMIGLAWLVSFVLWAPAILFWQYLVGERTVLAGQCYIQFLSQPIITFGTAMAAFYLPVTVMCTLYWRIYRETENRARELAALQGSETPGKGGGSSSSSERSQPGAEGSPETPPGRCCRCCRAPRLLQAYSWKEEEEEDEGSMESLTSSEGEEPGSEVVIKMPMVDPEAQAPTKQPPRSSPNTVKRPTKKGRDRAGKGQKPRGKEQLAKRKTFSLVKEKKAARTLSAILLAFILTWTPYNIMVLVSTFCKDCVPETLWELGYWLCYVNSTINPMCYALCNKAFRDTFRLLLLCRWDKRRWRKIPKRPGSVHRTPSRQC
# [2] = target: T2, Muscarinic acetylcholine receptor M2 (Homo sapiens, UniProt P08172); assay: Displacement of [3H]NMS from human M2 receptor expressed in CHO cells by microplate scintillation counting based radioligand binding assay; type: cell-based
# T2 sequence (P08172 whole entry): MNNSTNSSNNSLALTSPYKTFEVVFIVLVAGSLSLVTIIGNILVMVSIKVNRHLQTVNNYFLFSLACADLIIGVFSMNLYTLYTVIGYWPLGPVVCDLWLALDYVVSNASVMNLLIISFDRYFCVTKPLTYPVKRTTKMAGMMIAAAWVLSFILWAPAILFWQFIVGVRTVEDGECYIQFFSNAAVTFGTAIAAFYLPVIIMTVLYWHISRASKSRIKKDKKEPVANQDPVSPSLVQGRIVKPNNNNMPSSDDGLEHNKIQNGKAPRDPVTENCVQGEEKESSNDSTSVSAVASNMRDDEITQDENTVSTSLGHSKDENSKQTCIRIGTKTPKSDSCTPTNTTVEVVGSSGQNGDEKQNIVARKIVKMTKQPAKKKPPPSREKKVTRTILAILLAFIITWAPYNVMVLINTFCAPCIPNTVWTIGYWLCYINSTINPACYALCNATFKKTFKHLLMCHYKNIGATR
# [3] = target: T3, Muscarinic acetylcholine receptor M4 (Homo sapiens, UniProt P08173); assay: Antagonist activity at human M4 receptor expressed in HEK293T cells assessed as inhibition of carbachol-induced response by beta-arrestin engagement assay; type: cell-based, HEK-293T
# T3 sequence (P08173 whole entry): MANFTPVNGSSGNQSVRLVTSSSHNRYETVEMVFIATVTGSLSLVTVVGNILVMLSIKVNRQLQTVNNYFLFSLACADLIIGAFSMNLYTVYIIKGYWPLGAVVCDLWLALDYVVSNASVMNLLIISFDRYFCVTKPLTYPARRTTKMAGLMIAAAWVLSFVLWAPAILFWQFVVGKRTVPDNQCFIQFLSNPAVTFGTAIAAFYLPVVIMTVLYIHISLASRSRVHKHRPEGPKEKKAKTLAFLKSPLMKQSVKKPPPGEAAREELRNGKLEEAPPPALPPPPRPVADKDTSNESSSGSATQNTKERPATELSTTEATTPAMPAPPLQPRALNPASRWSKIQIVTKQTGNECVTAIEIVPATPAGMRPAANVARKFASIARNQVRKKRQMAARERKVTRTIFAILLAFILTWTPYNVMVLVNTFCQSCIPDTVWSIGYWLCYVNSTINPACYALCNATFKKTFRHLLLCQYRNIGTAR
# [4] = target: T1, Muscarinic acetylcholine receptor M1; type: cell-based, HEK-293T
# [5] = target: T3, Muscarinic acetylcholine receptor M4; assay: Antagonist activity at human M4 receptor expressed in HEK293T cells assessed as inhibition of carbachol-induced response by BRET based Gq protein engagement assay; type: cell-based, HEK-293T
# [6] = target: T1, Muscarinic acetylcholine receptor M1; assay: Displacement of [3H]NMS from human M1 receptor expressed in CHO cells by microplate scintillation counting based radioligand binding assay; type: cell-based
# [7] = target: T3, Muscarinic acetylcholine receptor M4; assay: Displacement of [3H]NMS from human M4 receptor expressed in CHO cells by microplate scintillation counting based radioligand binding assay; type: cell-based
# [8] = target: T4, Muscarinic acetylcholine receptor M1 (Homo sapiens) (UniProt P11229); assay: Agonist activity at human M1 receptor expressed in HEK293T cells by BRET based Gq protein engagement assay relative carbachol; type: cell-based; settings: HEK-293T
# T4 sequence (whole entry): T1 sequence (P11229 whole entry)
# [9] = target: T3, Muscarinic acetylcholine receptor M4; assay: Agonist activity at human M4 receptor expressed in HEK293T cells by BRET based Gq protein activation assay
# [10] = target: T5, Muscarinic acetylcholine receptor M4 (Homo sapiens) (UniProt P08173); assay: Antagonist activity at human M4 receptor expressed in HEK293T cells assessed as inhibition of carbachol-induced response by beta-arrestin engagement assay relative to untreated control; type: cell-based; settings: HEK-293T
# T5 sequence (whole entry): T3 sequence (P08173 whole entry)
# [11] = target: T4, Muscarinic acetylcholine receptor M1 (Homo sapiens); assay: Agonist activity at human M1 receptor expressed in HEK293T cells by BRET based beta-arrestin engagement assay relative to carbachol; type: cell-based; settings: HEK-293T
# [12] = target: T5, Muscarinic acetylcholine receptor M4 (Homo sapiens); assay: Antagonist activity at human M4 receptor expressed in HEK293T cells assessed as inhibition of carbachol-induced response by BRET based Gq protein engagement assay relative to untreated control; type: cell-based; settings: HEK-293T
# [13] = target: Muscarinic acetylcholine receptor M3 (Homo sapiens, UniProt P20309); assay: Displacement of [3H]NMS from human M3 receptor expressed in CHO cells by microplate scintillation counting based radioligand binding assay; type: cell-based
# [14] = target: T1, Muscarinic acetylcholine receptor M1; type: cell-based, HEK-293T; remark: listed apart in the source
# [15] = target: T4, Muscarinic acetylcholine receptor M1 (Homo sapiens); assay: Agonist activity at human M1 receptor expressed in HEK293T cells by BRET based Gq protein activation assay relative to carbachol; type: cell-based; settings: HEK-293T
# [16] = target: T5, Muscarinic acetylcholine receptor M4 (Homo sapiens); assay: Agonist activity at human M4 receptor expressed in HEK293T cells by BRET based Gq protein engagement assay relative to carbachol; type: cell-based; settings: HEK-293T
# [17] = target: T1, Muscarinic acetylcholine receptor M1; assay: Agonist activity at human M1 receptor expressed in HEK293T cells by BRET based beta-arrestin engagement assay
# [18] = target: T6, Muscarinic acetylcholine receptor M5 (Homo sapiens, UniProt P08912); assay: Displacement of [3H]NMS from human M5 receptor expressed in CHO cells by microplate scintillation counting based radioligand binding assay; type: cell-based
# T6 sequence (P08912 whole entry): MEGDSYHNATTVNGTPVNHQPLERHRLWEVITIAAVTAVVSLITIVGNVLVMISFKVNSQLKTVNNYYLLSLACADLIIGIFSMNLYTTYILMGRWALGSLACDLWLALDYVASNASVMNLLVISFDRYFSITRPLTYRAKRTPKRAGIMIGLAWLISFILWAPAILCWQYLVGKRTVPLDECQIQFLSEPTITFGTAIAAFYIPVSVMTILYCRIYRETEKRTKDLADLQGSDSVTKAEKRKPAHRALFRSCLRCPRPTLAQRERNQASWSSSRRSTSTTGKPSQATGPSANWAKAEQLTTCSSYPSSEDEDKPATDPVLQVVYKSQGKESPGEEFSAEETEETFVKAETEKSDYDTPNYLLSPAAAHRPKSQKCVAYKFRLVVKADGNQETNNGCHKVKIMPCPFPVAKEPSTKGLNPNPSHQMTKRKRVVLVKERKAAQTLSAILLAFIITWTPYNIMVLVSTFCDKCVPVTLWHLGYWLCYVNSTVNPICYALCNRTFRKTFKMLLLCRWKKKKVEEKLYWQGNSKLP
# [19] = target: T5, Muscarinic acetylcholine receptor M4 (Homo sapiens); assay: Agonist activity at human M4 receptor expressed in HEK293T cells by BRET based Gi protein activation assay relative to carbachol; settings: HEK-293T
# [20] = target: T3, Muscarinic acetylcholine receptor M4
# [21] = target: T1, Muscarinic acetylcholine receptor M1; assay: Agonist activity at human M1 receptor expressed in HEK293T cells by BRET based Gq protein engagement assay
# [22] = target: T1, Muscarinic acetylcholine receptor M1
# [23] = target: T5, Muscarinic acetylcholine receptor M4 (Homo sapiens); assay: Antagonist activity at human M4 receptor expressed in HEK293T cells assessed as inhibition of carbachol-induced response by BRET based Gi protein activation assay relative to untreated control; settings: HEK-293T
# [24] = target: T1, Muscarinic acetylcholine receptor M1; assay: Positive modulatory activity at human M1 receptor expressed in HEK293T cells assessed as effect on carbachol-induced response by BRET based Gq protein activation assay; type: cell-based, HEK-293T
# [25] = target: T4, Muscarinic acetylcholine receptor M1 (Homo sapiens); assay: Positive modulatory activity at human M1 receptor expressed in HEK293T cells assessed as effect on carbachol-induced response by BRET based Gq protein engagement assay relative to untreated control; type: cell-based; settings: HEK-293T
# [26] = target: T1, Muscarinic acetylcholine receptor M1; assay: Positive modulatory activity at human M1 receptor expressed in HEK293T cells assessed as effect on carbachol-induced response by BRET based Gq protein engagement assay; type: cell-based, HEK-293T
# [27] = target: T4, Muscarinic acetylcholine receptor M1 (Homo sapiens); assay: Positive modulatory activity at human M1 receptor expressed in HEK293T cells assessed as effect on carbachol-induced response by BRET based Gq protein activation assay relative to untreated control; type: cell-based; settings: HEK-293T
# Muscarinic acetylcholine receptor M3, sequence (P20309 whole entry): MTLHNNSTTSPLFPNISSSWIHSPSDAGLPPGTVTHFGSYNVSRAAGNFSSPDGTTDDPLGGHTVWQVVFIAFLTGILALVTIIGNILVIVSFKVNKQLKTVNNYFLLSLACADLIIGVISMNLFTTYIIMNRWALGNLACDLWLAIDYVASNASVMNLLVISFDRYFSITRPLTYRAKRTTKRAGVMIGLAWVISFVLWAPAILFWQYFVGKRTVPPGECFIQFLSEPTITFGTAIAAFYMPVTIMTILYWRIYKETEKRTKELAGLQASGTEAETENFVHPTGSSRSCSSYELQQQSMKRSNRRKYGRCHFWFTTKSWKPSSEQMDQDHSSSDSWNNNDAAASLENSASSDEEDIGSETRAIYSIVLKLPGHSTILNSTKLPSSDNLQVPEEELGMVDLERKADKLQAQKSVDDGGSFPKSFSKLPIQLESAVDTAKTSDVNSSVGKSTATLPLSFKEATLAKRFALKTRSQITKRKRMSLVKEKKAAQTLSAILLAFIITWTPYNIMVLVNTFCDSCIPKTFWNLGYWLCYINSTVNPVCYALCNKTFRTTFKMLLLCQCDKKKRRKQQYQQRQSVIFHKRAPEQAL
Compound,EC50 [1] [nM],Ki [2] [nM],IC50 [3] [nM],IC50 [4] [nM],IC50 [5] [nM],Ki [6] [nM],Ki [7] [nM],Emax [8] [%],Imax [10] [%],Imax [12] [%],Ki [13] [nM],IC50 [14] [nM],Emax [15] [%],Emax [16] [%],Ki [18] [nM],Emax [19] [%],IC50 [20] [nM],IC50 [22] [nM],Imax [23] [%],also measured
CN1CCC=C(c2nsnc2OCCCCCCCCCC2CCN(CCCN3C(=O)CCc4ccccc43)CC2)C1,871,1.7,95500,148000,2450,1.02,1.07,< 0,< 100,63,1.1,14100,31,< 0,2.95,> 100,,,,EC50 [9]: 66100 nM; Emax [11]: 81%; EC50 [17]: 61700 nM
O=C1CCc2ccccc2N1CCCN1CCC(CCCCCO)CC1,204,603,1620,10000,12300,468,447,58,< 100,72,1910,26300,53,,4570,20,3310,28.8,38,EC50 [9]: 2000 nM; EC50 [21]: 112 nM
O=C1CCc2ccccc2N1CCCN1CCC(CCCCCCCCCO)CC1,295,214,813,19500,589,282,155,< 0,90,92,200,10000,22,< 0,851,< 0,3630,490,< 100,Emax [11]: 50%; EC50 [17]: 245000 nM
CN1CCC=C(c2nsnc2OCCCCCCCCCCCC2CCN(CCCN3C(=O)CCc4ccccc43)CC2)C1,,89.1,,,,11,6.61,,,,10,,,,8.71,,,,,
O=C1CCc2ccccc2N1CCCN1CCC(CCCO)CC1,,3240,,,,2510,589,,,,11700,,,,14500,,,,,
O=C1CCc2ccccc2N1CCCN1CCC(CCCCCCCO)CC1,100,209,794,,1480,355,389,76,93,< 100,631,,73,< 0,3090,< 0,589,1150,54,EC50 [24]: 85.1 nM; Emax [25]: 21%; EC50 [26]: 69.2 nM; EC50 [21]: 229 nM; Emax [27]: 44%
CN1CCC=C(c2nsnc2OCCCCCCCCCCCCCC2CCN(CCCN3C(=O)CCc4ccccc43)CC2)C1,,85.1,,,,44.7,14.5,,,,44.7,,,,30.9,,,,,
